The values below come from ChEMBL document CHEMBL4033646, “Structure of a Myeloid cell leukemia-1 (Mcl-1) inhibitor bound to drug site 3 of Human Serum Albumin” (Bioorg Med Chem, 2017).

Experiment [1] concerns the target T1, Induced myeloid leukemia cell differentiation protein Mcl-1 (Homo sapiens, UniProt Q07820). Kind of experiment: Inhibition of FITC-Bak-BH3 binding to recombinant MBP-fused MCL1 (172 to 318 residues) (unknown origin) by TR-FRET assay. (In general: TR-FRET usually uses a lanthanide donor and a delayed reading to cut background.)
The target in experiment [2] is T1, Induced myeloid leukemia cell differentiation protein Mcl-1. Description: Inhibition of FITC-Bak-BH3 binding to recombinant MBP-fused MCL1 (172 to 318 residues) (unknown origin) in presence of 1% FBS by TR-FRET assay.

T1 sequence (Q07820 whole entry, the tested form may be a part): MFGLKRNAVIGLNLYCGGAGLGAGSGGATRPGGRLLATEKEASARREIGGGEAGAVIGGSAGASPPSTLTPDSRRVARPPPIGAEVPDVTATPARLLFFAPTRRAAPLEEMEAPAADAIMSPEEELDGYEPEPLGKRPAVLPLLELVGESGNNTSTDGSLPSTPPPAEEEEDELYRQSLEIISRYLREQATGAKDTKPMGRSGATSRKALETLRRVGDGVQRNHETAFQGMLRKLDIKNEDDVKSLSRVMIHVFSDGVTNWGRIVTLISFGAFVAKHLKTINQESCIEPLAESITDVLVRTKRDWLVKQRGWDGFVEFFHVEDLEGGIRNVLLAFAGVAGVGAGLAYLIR

Turning to `Cc1cc(OCCCc2c(C(=O)O)[nH]c3c(-c4c(COCCN(C)C)nn(C)c4C)cccc23)cc(C)c1Cl`, the Ki in experiment [1] amounted to 20 nM; in experiment [2], 32 nM.

With `Cc1cc(OCCCc2c(C(=O)O)[nH]c3c(-c4c(C)nn(C)c4C)cccc23)cc(C)c1Cl`, the inhibition constant (Ki) in experiment [1] came out at 48 nM; in experiment [2], 262 nM.

Regarding `Cc1cc(OCCCc2c(C(=O)O)[nH]c3c(-c4c(CN5CCCCC5)nn(C)c4C)cccc23)cc(C)c1Cl`, the Ki in experiment [1] turned out to be 22 nM; in experiment [2], 73 nM.

As usually defined, the Ki is the equilibrium dissociation constant of an inhibitor or competing ligand from its target.
